Experimental data from PubChem BioAssay AID2060509 (Molecular Pharmacology Branch, DTP, NCI, 2025).

Test system: 485176-168-R4-J1-PDC spheroids with HUVEC/MSC, viability
Assay: Anticancer human tumor 485176-168-R4-J1-PDC patient-derived pancreatic adenocarcinoma cell line growth inhibition [GQUAD]
Conditions: for IC50: curve of first compound; for viability, T/C: stronger effect = lower value
Method in brief: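 Viability of tumor cells grown as complex spheroids with endothelial and stromal cells, exposed to drug combinations. Top concentration at or near clinical Cmax (else 10 microM), diluted in half-log increments.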

[1] = second compound 0.0316 µM, first compound 0.0316 µM
[2] = second compound 0.0316 µM, first compound 0.1 µM
[3] = second compound 0.0316 µM, first compound 0.316 µM
[4] = second compound 0.0316 µM, first compound 1 µM
[5] = second compound 0.0316 µM, first compound 3.16 µM
[6] = second compound 0.0316 µM, first compound 10 µM
[7] = second compound 0.1 µM, first compound 0.0316 µM
[8] = second compound 0.1 µM, first compound 0.1 µM
[9] = second compound 0.1 µM, first compound 0.316 µM
[10] = second compound 0.1 µM, first compound 1 µM
[11] = second compound 0.1 µM, first compound 3.16 µM
[12] = second compound 0.1 µM, first compound 10 µM
[13] = second compound 0.316 µM, first compound 0.0316 µM
[14] = second compound 0.316 µM, first compound 0.1 µM
[15] = second compound 0.316 µM, first compound 0.316 µM
[16] = second compound 0.316 µM, first compound 1 µM
[17] = second compound 0.316 µM, first compound 3.16 µM
[18] = second compound 0.316 µM, first compound 10 µM
[19] = second compound 1 µM, first compound 0.0316 µM
[20] = second compound 1 µM, first compound 0.1 µM
[21] = second compound 1 µM, first compound 0.316 µM
[22] = second compound 1 µM, first compound 1 µM
[23] = second compound 1 µM, first compound 3.16 µM
[24] = second compound 1 µM, first compound 10 µM
[25] = second compound 3.16 µM, first compound 0.0316 µM
[26] = second compound 3.16 µM, first compound 0.1 µM
[27] = second compound 3.16 µM, first compound 0.316 µM
[28] = second compound 3.16 µM, first compound 1 µM
[29] = second compound 3.16 µM, first compound 3.16 µM
[30] = second compound 3.16 µM, first compound 10 µM
[31] = second compound 10 µM, first compound 0.0316 µM
[32] = second compound 10 µM, first compound 0.1 µM
[33] = second compound 10 µM, first compound 0.316 µM
[34] = second compound 10 µM, first compound 1 µM
[35] = second compound 10 µM, first compound 3.16 µM
[36] = second compound 10 µM, first compound 10 µM
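Further: spheroids exposed to compounds for seven days before readout.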
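Wherever viability, T/C is given: percent viability relative to DMSO vehicle control wells as 100%.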

`CC(C)(O)C1CCC(Nc2ccc3ncc(-c4cccc(C(F)(F)F)c4)n3n2)CC1` (stereo not drawn) + Cc1[nH]c2ccc(F)cc2c1-c1nc2c3cccnc3c3ncccc3c2[nH]1 was tested, and the IC50 (second compound 0.0316 µM) was over 10000 nM, the IC50 (second compound 0.1 µM) was over 10000 nM and the IC50 (second compound 0.316 µM) was 8530 nM. For the same molecule, the IC50 (second compound 1 µM) was 2590 nM, the IC50 (second compound 3.16 µM) was 2760 nM and the IC50 (second compound 10 µM) was 2560 nM. For the same molecule, the viability, T/C [1] was 80.2%, the viability, T/C [2] was 110% and the viability, T/C [3] was 84.5%. For the same molecule, the viability, T/C [4] was 81.3%, the viability, T/C [5] was 57.7% and the viability, T/C [6] was 54.7%. It also gave a viability, T/C [7] of 93.2%, a viability, T/C [8] of 89.3% and a viability, T/C [9] of 86.8%. For the same molecule, the viability, T/C [10] was 88.4%, the viability, T/C [11] was 61% and the viability, T/C [12] was 59.9%. For the same molecule, the viability, T/C [13] was 93.6%, the viability, T/C [14] was 100% and the viability, T/C [15] was 86.8%. It also gave a viability, T/C [16] of 82.3%, a viability, T/C [17] of 58% and a viability, T/C [18] of 49.1%. The viability, T/C [19] was 82.9%, the viability, T/C [20] was 93.1% and the viability, T/C [21] was 108%. For the same molecule, the viability, T/C [22] was 77.6%, the viability, T/C [23] was 47.3% and the viability, T/C [24] was 40.5%. The viability, T/C [25] was 76.9%, the viability, T/C [26] was 83.7% and the viability, T/C [27] was 88.6%. The viability, T/C [28] was 78.6%, the viability, T/C [29] was 46.2% and the viability, T/C [30] was 33.1%. It also gave a viability, T/C [31] of 92%, a viability, T/C [32] of 55.6% and a viability, T/C [33] of 70.3%. For the same molecule, the viability, T/C [34] was 75.3%, the viability, T/C [35] was 40.3% and the viability, T/C [36] was 29.5%.

`CCCS(=O)(=O)Nc1ccc(F)c(C(=O)c2c[nH]c3ncc(-c4ccc(Cl)cc4)cc23)c1F` + Cc1[nH]c2ccc(F)cc2c1-c1nc2c3cccnc3c3ncccc3c2[nH]1 was tested, and the IC50 (second compound 0.0316 µM) was over 10000 nM, the IC50 (second compound 0.1 µM) was over 10000 nM and the IC50 (second compound 0.316 µM) was over 10000 nM. It also gave an IC50 (second compound 1 µM) of over 10000 nM, an IC50 (second compound 3.16 µM) of over 10000 nM and an IC50 (second compound 10 µM) of over 10000 nM. It also gave a viability, T/C [1] of 95%, a viability, T/C [2] of 93.6% and a viability, T/C [3] of 96.1%. It also gave a viability, T/C [4] of 94.8%, a viability, T/C [5] of 116% and a viability, T/C [6] of 75.5%. It also gave a viability, T/C [7] of 84.8%, a viability, T/C [8] of 102% and a viability, T/C [9] of 87.8%. It also gave a viability, T/C [10] of 86.1%, a viability, T/C [11] of 99.1% and a viability, T/C [12] of 71.2%. It also gave a viability, T/C [13] of 105%, a viability, T/C [14] of 86.1% and a viability, T/C [15] of 90.7%. For the same molecule, the viability, T/C [16] was 82.9%, the viability, T/C [17] was 80.1% and the viability, T/C [18] was 67.2%. The viability, T/C [19] was 87.2%, the viability, T/C [20] was 85.2% and the viability, T/C [21] was 76.7%. It also gave a viability, T/C [22] of 84.2%, a viability, T/C [23] of 77.5% and a viability, T/C [24] of 69.5%. It also gave a viability, T/C [25] of 104%, a viability, T/C [26] of 88.6% and a viability, T/C [27] of 89%. For the same molecule, the viability, T/C [28] was 72.1%, the viability, T/C [29] was 84% and the viability, T/C [30] was 63.5%. It also gave a viability, T/C [31] of 84.9%, a viability, T/C [32] of 91% and a viability, T/C [33] of 88.4%. It also gave a viability, T/C [34] of 74.9%, a viability, T/C [35] of 66.6% and a viability, T/C [36] of 51.7%.

Molecule `O=C(NO)c1cnc(N2CCN(S(=O)(=O)c3ccc4ccccc4c3)CC2)nc1` + Cc1[nH]c2ccc(F)cc2c1-c1nc2c3cccnc3c3ncccc3c2[nH]1 has an IC50 (second compound 0.0316 µM) of 511 nM, an IC50 (second compound 0.1 µM) of 597 nM and an IC50 (second compound 0.316 µM) of 557 nM. The IC50 (second compound 1 µM) was 592 nM, the IC50 (second compound 3.16 µM) was 1030 nM and the IC50 (second compound 10 µM) was 1020 nM. It also gave a viability, T/C [1] of 94.1%, a viability, T/C [2] of 86.3% and a viability, T/C [3] of 70.8%. For the same molecule, the viability, T/C [4] was 21.8%, the viability, T/C [5] was 0.24% and the viability, T/C [6] was 0.23%. The viability, T/C [7] was 90.3%, the viability, T/C [8] was 98.4% and the viability, T/C [9] was 80.4%. It also gave a viability, T/C [10] of 25.1%, a viability, T/C [11] of 0.3% and a viability, T/C [12] of 0.19%. It also gave a viability, T/C [13] of 122%, a viability, T/C [14] of 87.5% and a viability, T/C [15] of 67.1%. The viability, T/C [16] was 42.8%, the viability, T/C [17] was 0.2% and the viability, T/C [18] was 0.18%. The viability, T/C [19] was 94.2%, the viability, T/C [20] was 84.7% and the viability, T/C [21] was 68%. The viability, T/C [22] was 37.6%, the viability, T/C [23] was 0.32% and the viability, T/C [24] was 0.18%. For the same molecule, the viability, T/C [25] was 87.9%, the viability, T/C [26] was 79.9% and the viability, T/C [27] was 73.5%. For the same molecule, the viability, T/C [28] was 52.3%, the viability, T/C [29] was 0.29% and the viability, T/C [30] was 0.21%. For the same molecule, the viability, T/C [31] was 88.2%, the viability, T/C [32] was 71.7% and the viability, T/C [33] was 75.6%. It also gave a viability, T/C [34] of 50.9%, a viability, T/C [35] of 0.27% and a viability, T/C [36] of 0.37%.

Molecule `O=c1[nH]cc(F)c(=O)[nH]1` + Cc1[nH]c2ccc(F)cc2c1-c1nc2c3cccnc3c3ncccc3c2[nH]1 has an IC50 (second compound 0.0316 µM) of 928 nM, an IC50 (second compound 0.1 µM) of 967 nM and an IC50 (second compound 0.316 µM) of over 10000 nM. It also gave an IC50 (second compound 1 µM) of 842 nM, an IC50 (second compound 3.16 µM) of 2520 nM and an IC50 (second compound 10 µM) of 807 nM. It also gave a viability, T/C [1] of 89.8%, a viability, T/C [2] of 83.4% and a viability, T/C [3] of 75.1%. For the same molecule, the viability, T/C [4] was 46.7%, the viability, T/C [5] was 51.4% and the viability, T/C [6] was 46.6%. It also gave a viability, T/C [7] of 86.7%, a viability, T/C [8] of 96.3% and a viability, T/C [9] of 80.9%. The viability, T/C [10] was 45.9%, the viability, T/C [11] was 48.8% and the viability, T/C [12] was 52.5%. The viability, T/C [13] was 92.7%, the viability, T/C [14] was 102% and the viability, T/C [15] was 76.8%. The viability, T/C [16] was 55.5%, the viability, T/C [17] was 46.2% and the viability, T/C [18] was 54.8%. The viability, T/C [19] was 81.9%, the viability, T/C [20] was 104% and the viability, T/C [21] was 68.5%. For the same molecule, the viability, T/C [22] was 49.8%, the viability, T/C [23] was 43.2% and the viability, T/C [24] was 47.2%. It also gave a viability, T/C [25] of 93.7%, a viability, T/C [26] of 86.5% and a viability, T/C [27] of 69.5%. The viability, T/C [28] was 65.1%, the viability, T/C [29] was 39.7% and the viability, T/C [30] was 47.2%. The viability, T/C [31] was 94.1%, the viability, T/C [32] was 80.5% and the viability, T/C [33] was 60.5%. The viability, T/C [34] was 46.8%, the viability, T/C [35] was 41.6% and the viability, T/C [36] was 48.5%.
